Results published in patent US6294565A, “Methods of combatting infectious diseases using dicationic bis-benzimidazoles” (University of North Carolina at Chapel Hill, priority 2000, dated 2001).
Converted amounts (≈) assume the structure as drawn.

Tests used:
[1] = tested on: L1210 cells; test: in vitro cytotoxicity, 3H-thymidine incorporation in L1210 cells; type: cell-based; conditions: Mus musculus, 48 hours, 6 replicates
Text: Source: L1210 cells were obtained from the American Type Culture Collection (ATCC#CCL219). This line is a mouse lymphocytic leukemia line first described by E. Law et al., J. Natl. Cancer Inst. 10, 179-192 (1949) as a tumor arising in a mouse following skin paintings with 0.2% methycholanthrene. The first report of suspension culture was reported by G. Moore et al. J. Natl. Cancer Inst. 36, 405-421 (1966). This line has been used extensively for routine screening programs of chemical agents and natural products for cytotoxic activity and is also utilized in preliminary testing for antitumor activity by the NCI in cancer chemotherapy screening studies.
The in vitro cytotoxicity studies were performed essentially as described by Denizot and Lang, "Rapid calorimetric assay for cell growth and survival: Modification of tetrazolium dye procedure giving improved sensitivity and reliability", J. Immunological Methods 89, 271 (1986), but with the following modifications. Since many of the drugs had color interference, the viability of the cells was determined with a ^3 H-thymidine incorporation method. L1210 cells in DMEM +10% fetal calf serum were plated at 2.0×10^4 cells/well. An equal volume of test compound was added to each well diluted to 2× the final concentration in the above medium. Final drug concentrations ranged from 0.05 to 50 μM. After 24 hours at 37° C., 2.5 μCi of ^3 H-Thymidine (5 Ci/mmol) was added to each well. At 48 hours, the cells were harvested onto glass filters and radioactivity was measured with a scintillation counter.
The IC50 value was determined as the concentration leading to a 50% reduction of ^3 H-thymidine incorporation relative to control wells. Each value shown in Table 1, above, resulted from 6 replicates for each compound.

[2] = tested on: S. cerevisiae; test: S. cerevisiae IC50 (Table I); type: cell-based; conditions: Saccharomyces cerevisiae
[3] = tested on: Calf thymus DNA; test: DNA binding by change in melting of the DNA bound to the compounds (ΔTm); conditions: 259 nm, 18° C./h heating; initial absorbance of 0.3A259
Protocol: DNA binding potency was determined for each of the compounds because previous work had determined that the binding of dicationic molecules to DNA is a prerequisite for their antimicrobial activity. See e.g., Tidwell, R. R., et al., Antimicrob. Agents Chemother. 37, 1713-1716 (1993); Bell, C. A., et al., Antimicrob. Agents Chemother. 35, 1099-1107 (1991). The DNA binding of the compounds was determined by the change in melting of the DNA bound to the compounds. The method is well documented and is a considered a standard method for determining DNA binding strength. See Cory, M. et al., J. Med. Chem. 25, 431-438 (1992). In brief, a UV-visible light spectrophotometer with a cuvette changer was interfaced to a microcomputer that recorded the cuvette temperature and DNA-absorbance data at 259 nm as the sample was heated at a rate of 18° C./h. Calf thymus DNA was used at an initial absorbance of 0.3A259. The midpoint of each denaturation curve was determined after graphic selection on the computer of the starting and ending absorbance temperature for each curve of each experiment. DNA or DNA bound to experimental compound was run in each experiment and the ΔTm s were determined from the polynucleotide TM for that experiment.

[4] = tested on: C. albicans; test: standard in vitro fungal cell growth inhibition assay (broth dilution, M27-P), minimum fungicidal concentration; type: cell-based; conditions: Candida albicans, A39 clinical isolate, RPMI media, inoculum 10^4 cells, less than 0.01% survival of original inoculum
Protocol: (§1) Activity of the compounds were assessed using a standard in vitro fungal cell growth inhibition assay (the broth dilution antifungal susceptibility testing of yeast, proposed standard document M27-P, validated by the National Committee for Clinical Laboratory Standards, 1992). Briefly, this broth dilution procedure uses RPMI media, and an inoculum of 10^4 cells. Control tubes contained media alone. After the minimal inhibitor concentration was determined by the above procedure, tubes with no visible growth were subcultured to determine the minimum fungicidal concentration by using criteria of less than 0.01% survival of original inoculum. Two organisms were tested: (1) H99, a clinical isolate of C. neoformans which is fully susceptible to azoles and polyenes in vitro and in vivo; and (2) A39, a clinical isolate of C. albicans which is fully susceptible to azoles and polyenes.
(§2) The MFC's (minimum fungicidal concentration) against these two important AIDS-associated fungal infections are shown in Table 1. MFCs were determined following the method of McGinnis.

[5] = tested on: C. neoformans; test: as above; type: cell-based; conditions: Cryptococcus neoformans, H99 clinical isolate, RPMI media, inoculum 10^4 cells, less than 0.01% survival of original inoculum
Protocol: as §1, §2

| IC50 [2] [µM] | Compound | IC50 [1] [µM] | ΔTm DNA binding [3] [°C] | MFC [4] [µM] | MFC [5] [µM] |
| --- | --- | --- | --- | --- | --- |
| 45 | N=C(N)c1ccc2nc(-c3ccc(-c4nc5ccc(C(=N)N)cc5[nH]4)[nH]3)[nH]c2c1 [Compound 1, 2,5-bis(5-amidino-2-benzimidazolyl)pyrrole] | 0.21 | 18.1 | 5.71 (≈ 2.19 µg/mL) | 2.85 (≈ 1.09 µg/mL) |
| < 1 | c1cc2[nH]c(-c3ccc(-c4nc5cc(C6=NCCN6)ccc5[nH]4)[nH]3)nc2cc1C1=NCCN1 [Compound 2, 2,5-bis-[5-(2-imidazolinyl)-2-benzimidazolyl]pyrrole] | 1.07 |  | 26.8 (≈ 11.7 µg/mL) | 107 (≈ 46.6 µg/mL) |
| 10 | c1cc(-c2nc3cc(C4=NCCN4)ccc3[nH]2)nc(-c2nc3cc(C4=NCCN4)ccc3[nH]2)c1 [Compound 3, 2,6-bis[5-(2-imidazolinyl)-2-benzimidazolyl]pyridine] | 1.26 |  | 2.6 (≈ 1.16 µg/mL) | 5.2 (≈ 2.33 µg/mL) |
| 90 | Cn1c(-c2nc3ccc(C(=N)N)cc3[nH]2)ccc1-c1nc2ccc(C(=N)N)cc2[nH]1 [Compound 4, 1-Methyl-2,5-bis(5-amidino-2-benzimidazolyl)pyrrole] | 0.81 | 20.3 | 2.84 (≈ 1.13 µg/mL) | 5.69 (≈ 2.26 µg/mL) |
| > 100 | Cn1c(-c2nc3cc(C4=NCCN4)ccc3[nH]2)ccc1-c1nc2cc(C3=NCCN3)ccc2[nH]1 [Compound 5] | 1.51 | 22.5 | 5.09 (≈ 2.29 µg/mL) | 2.54 (≈ 1.14 µg/mL) |
| 95 | N=C(N)c1ccc2[nH]c(-c3cccc(-c4nc5cc(C(=N)N)ccc5[nH]4)n3)nc2c1 [Compound 7, 2,6-bis(5-amidino-2-benzimidazoyl)pyridine] | 13.6 | 15.3 | > 179 | > 179 |
| 304 | c1cc(-c2nc3ccc(C4=NCCCN4)cc3[nH]2)nc(-c2nc3ccc(C4=NCCCN4)cc3[nH]2)c1 [Compound 8, 2,6-bis[5-(1,4,5,6-tetrahydro-2-pyrimidinyl)-2-benzimidazolyl]pyridine] | 3 | 14.8 | > 52 | 19 (≈ 9.05 µg/mL) |
|  | N=C(N)c1ccc2nc(-c3ccc(-c4nc5ccc(C(=N)N)cc5[nH]4)o3)[nH]c2c1 [Compound 9, 2,5-bis(5-amidino-2-benzimidazolyl)furan] |  |  | 6.44 (≈ 2.48 µg/mL) | 1.61 (≈ 0.619 µg/mL) |
|  | c1cc2[nH]c(-c3ccc(-c4nc5cc(C6=NCCN6)ccc5[nH]4)o3)nc2cc1C1=NCCN1 [Compound 10, 2,5-bis[5-(2-imidazolinyl)-2-benzimidazolyl]furan] |  |  | 5.21 (≈ 2.27 µg/mL) | 2.6 (≈ 1.13 µg/mL) |
